Assay results taken from patent publication US9174998B2, “(6S,9aS)-N-benzyl-6-[(4-hydroxyphenyl)methyl]-4,7-dioxo-8-({6-[3-(piperazin-1-yl)azetidin-1-yl]pyridin-2-yl}methyl)-2-(prop-2-en-1-yl)-octahydro-1H-pyrazino[2,1-c][1,2,4]triazine-1-carboxamide compound” (Eisai R&D Management Co., Ltd., priority 2013, dated 2015).
Values after ≈ are worked out from the molar mass of the structure shown. Where two headings read alike, the source gives them in different places.

How the values were obtained:
[1] = tested on: Wnt signal; test: Detection of Wnt signal (TOPglow luciferase reporter, LiCl-stimulated); type: cell-based; details: Homo sapiens; HEK293 clone carrying pNeo-TOP reporter; LiCl stimulation; luciferase luminescence; read-out: Test Example 1 IC50 (concentration required for inhibiting the Wnt signal activity by 50%)
Experimental: pcDNA3.1(+) (invitrogen) was cleaved with restriction enzymes BglII and NotI, and an adapter BEHKS having a sequence shown below (containing restriction enzyme sites BglII, EcoRI, HindIII, KpnI, SacI and NotI) was inserted thereinto, thereby producing a plasmid pNeo-HKS.
Subsequently, a fragment having a length of about 2700 bp (containing a Wnt-responsive sequence and a luciferase gene), which was prepared by cleaving from a TOPglow plasmid contained in a TOPglow/FOPglow TCF Reporter Kit (upstate Catalog#17-366) with restriction enzymes HindIII and KpnI, was inserted between HindIII and KpnI in pNeo-HKS, thereby producing a plasmid pNeo-TOP. The plasmid pNeo-TOP was introduced into human fetus-derived renal cell strain HEK293, then a compound was selected using G418, and then a cell clone strain was established by a limiting dilution method. The cell clone strain was subjected to a Wnt signal detection test.
The cell clone strain was subcultured in a D-MEM glucose-rich culture medium (Wako Pure Chemical Industries, Ltd.) containing 10% FBS, and cells in a growth phase were used in the test. Cells were collected using trypsin-EDTA, the number of the cells was counted, and then the cells were suspended in a D-MEM glucose-rich culture medium containing 10% FBS so that the number of cells became 2×10^5 cells/mL. The cell suspension was added to a 96-well cell culture plate (Greiner Bio-One Co., Ltd., product number: 655083) in an amount of 0.1 mL/well and then cultured overnight in a 5% CO2 incubator (37° C.). After the culturing, a substance to be tested, which was dissolved in DMSO, was diluted with a D-MEM glucose-rich culture medium containing 10% of FBS and 80 mM of LiCl to produce a sample solution. The sample solution (0.1 mL) was added to each well and then cultured in a 5% CO2 incubator (37° C.) […]. Six hours after the addition of the sample solution, a supernatant was removed from each well, and then 50 μL of Bright-Glo™ Luciferase substrate (Promega, product number: E2620) was added thereto. The plate was put on a plate mixer for several seconds, and then the emission of light from each well was measured using a EnVision™ Multilabel plate reader (PerkinElmer Co., Ltd.). The Wnt signal activation rate (%) of each well was determined, and a concentration (IC50) which is required for inhibiting the Wnt signal activity of a substance of interest by 50% was calculated, wherein the luminosity of a well to which a sample solution was not added and LiCl was added was defined as a 100% Wnt signal activity and the luminosity of a well to which either of a sample solution or LiCl was not added was defined as a 0% Wnt signal activity.

[2] = Evaluation of metabolic stability; type: in vitro ADME, human; details: 0.2 mg/mL HLM, 0.1 μM test substance, 15 minutes at 37° C., with vs without NADPH production
Experimental: A test substance was dissolved in DMSO so that the concentration of the resultant solution became 20 mM, and the solution was diluted with DMSO so that the concentration of the resultant solution became 1 mM. The metabolic stability of the test substance was evaluated using a human liver microsome (HLM) in which human liver was pooled. An assay buffer solution contained 0.2 mg/mL of HLM, a 0.1 M of phosphate potassium buffer solution (pH 7.4), 0.1 mM of EDTA, 0.33 mM of NADP+, 8 mM of glucose-6-phosphate, 0.1 U/mL of glucose-6-phosphate dehydrogenase, 6 mM of MgCl2, 0.1 μM of a test substance (final concentration in DMSO: 0.01%) in 0.15 mL of the final incubation volume. Fifteen minutes after the initiation of the reaction at 37° C., 0.15 mL of a acetonitrile/methanol mixed solution (7:3, by volume) was added to the solution to terminate the reaction. After centrifugation, the resultant supernatant was analyzed by LC-MSMS, peak areas were compared under the presence or absence of the production of NADPH, and the residual ratio of the test substance was calculated.

[3] = Evaluation of solubility (DMSO stock into PBS, HPLC-UV); type: physicochemical; details: Dulbecco's phosphate-buffered saline pH 7, room temperature, about 15 minutes shaking, values greater than 200 μM regarded as 200 μM, read-out: Test Example 3 solubility
Experimental: To 0.25 mL of a test solution a mentioned below was added 2.5 μL of a DMSO solution having a compound concentration of 20 mM. The resultant solution was shaken at room temperature for about 15 minutes (the conditions for the shaking are mentioned below). Subsequently, a supernatant was collected by a suction filtration under a reduced pressure. A DMSO solution having a compound concentration of 200 μM was used as a standard solution, and the concentration of a compound in a filtrate which was quantified by a HPLC-UV method was employed as a solubility (rounded off to the whole number). In this evaluation, since a value 200 μM became the upper limit operationally, all of quantification values greater than 200 μM were regarded as 200 μM.
Test solution: GIBCO (registered trade name) Dulbecco's phosphate-buffered saline (pH 7, Life Technologies Corporation)
Conditions for shaking: a microplate shaker N-704 (Nissinrika Corporation), speed 6

[4] = PAMPA test (parallel artificial membrane permeability assay); type: in vitro ADME; details: phosphate buffer pH 6.8, about 200 μM, about 5 hours, room temperature, read-out: Test Example 4 membrane permeation coefficient Pe
Experimental: A test solution (see below) was stirred while shaking at room temperature for about 5 hours using a 96-well PAMPA plate (BD Biosciences) in which a lipid had been precoated onto a polyvinylidene fluoride (PVDF) film to evaluate the membrane permeation coefficient Pe (cm/s) of each compound dissolved in the test solution (concentration: about 200 μM) upon the transport of the compound from a donor side to an acceptor side through a lipid membrane. The Pe value was calculated in accordance with equations 1 and 2, and the concentration of the compound on the donor side and the acceptor side was measured by a HPLC-UV method. In 0.3 mL of the test solution on the donor side is contained about 1% (v/v) of DMSO, since 3 μL of a DMSO solution containing the compound at a concentration of 20 mM was added to the test solution.
Test solution: a phosphate buffer solution having a pH value of 6.8 (90 mM of phosphate, 48 mM of NaCl, 5.4 mM of KCl)
Conditions for stirring: a multishaker MS-300 (AS ONE Corporation), 350 rpm
[formula] CD(t): compound concentration in donor well at time t CA(t): compound concentration in acceptor well at time t VD: donor well volume (0.3 mL) VA: acceptor well volume (0.2 mL) A: filter area (0.3 cm^2)

[5] = aqueous buffer, kinetic from dmso stock

Row | IC50 [1] | Test Example 2 residual ratio of the test substance [2] | solubility [3] | Papp [4] | solubility [3, 5] | SMILES
1 | 180 nM | 43% | 200 µM (≈ 152 µg/mL) | 0.57 ×10⁻⁶ cm/s | – | C=CCN1CC(=O)N2[C@@H](Cc3c(F)cc(O)cc3F)C(=O)N(Cc3cccc(N4CC(N5CCN(CC)[C@@H](C)C5)C4)n3)C[C@@H]2N1C(=O)NCc1ccccc1 [Example 22, (6S,9aS)-N-Benzyl-6-((2,6-difluoro-4-hydroxyphenyl)methyl)-8-((6-(3-((3S)-4-ethyl-3-methylpiperazin-1-yl)azetidin-1-yl)pyridin-2-yl)methyl)-4,7-dioxo-2-(prop-2-en-1-yl)-octahydro-1H-pyrazino[2,1-c][1,2,4]triazine-1-carboxamide]
2 | 95 nM | 29% | – | 2.77 ×10⁻⁶ cm/s | 189 µM (≈ 137 µg/mL) | C=CCN1CC(=O)N2[C@@H](Cc3ccc(O)cc3)C(=O)N(Cc3ccc(F)c(N4CC(N5CCN(CC)CC5)C4)n3)C[C@@H]2N1C(=O)NCc1ccccc1 [Example 7, (6S,9aS)-N-Benzyl-8-((6-(3-(4-ethylpiperazin-1-yl)azetidin-1-yl)-5-fluoropyridin-2-yl)methyl)-6-((4-hydroxyphenyl)methyl)-4,7-dioxo-2-(prop-2-en-1-yl)-octahydro-1H-pyrazino[2,1-c][1,2,4]triazine-1-carboxamide]
3 | 150 nM | 54% | 200 µM (≈ 142 µg/mL) | 1.33 ×10⁻⁶ cm/s | – | C=CCN1CC(=O)N2[C@@H](Cc3ccc(O)cc3F)C(=O)N(Cc3cccc(N4CC(N5CCN(C)CC5)C4)n3)C[C@@H]2N1C(=O)NCc1ccccc1 [Example 3, (6S,9aS)-N-Benzyl-6-((2-fluoro-4-hydroxyphenyl)methyl)-8-((6-(3-(4-methylpiperazin-1-yl)azetidin-1-yl)pyridin-2-yl)methyl)-4,7-dioxo-2-(prop-2-en-1-yl)-octahydro-1H-pyrazino[2,1-c][1,2,4]triazine-1-carboxamide]
4 | 190 nM | 38% | – | 0.43 ×10⁻⁶ cm/s | 195 µM (≈ 148 µg/mL) | C=CCN1CC(=O)N2[C@@H](Cc3c(F)cc(O)cc3F)C(=O)N(Cc3cccc(N4CC(N5CCN(CC)[C@H](C)C5)C4)n3)C[C@@H]2N1C(=O)NCc1ccccc1 [Example 23, (6S,9aS)-N-Benzyl-6-((2,6-difluoro-4-hydroxyphenyl)methyl)-8-((6-(3-((3R)-4-ethyl-3-methylpiperazin-1-yl)azetidin-1-yl)pyridin-2-yl)methyl)-4,7-dioxo-2-(prop-2-en-1-yl)-octahydro-1H-pyrazino[2,1-c][1,2,4]triazine-1-carboxamide]
5 | 320 nM | 37% | 200 µM (≈ 144 µg/mL) | 1.13 ×10⁻⁶ cm/s | – | C=CCN1CC(=O)N2[C@@H](Cc3ccc(O)cc3)C(=O)N(Cc3cccc(N4CC(N5CCN(CC)[C@@H](C)C5)C4)n3)C[C@@H]2N1C(=O)NCc1ccccc1 [Example 18, (6S,9aS)-N-Benzyl-8-((6-(3-((3S)-4-ethyl-3-methylpiperazin-1-yl)azetidin-1-yl)pyridin-2-yl)methyl)-6-((4-hydroxyphenyl)methyl)-4,7-dioxo-2-(prop-2-en-1-yl)-octahydro-1H-pyrazino[2,1-c][1,2,4]triazine-1-carboxamide]
6 | 96 nM | 38% | – | 0.87 ×10⁻⁶ cm/s | 188 µM (≈ 142 µg/mL) | C=CCN1CC(=O)N2[C@@H](Cc3c(F)cc(O)cc3F)C(=O)N(Cc3cccc(N4CC(N5CCN(C(C)C)CC5)C4)n3)C[C@@H]2N1C(=O)NCc1ccccc1 [Example 12, (6S,9aS)-N-Benzyl-6-((2,6-difluoro-4-hydroxyphenyl)methyl)-4,7-dioxo-2-(prop-2-en-1-yl)-8-((6-(3-(4-(propan-2-yl)piperazin-1-yl)azetidin-1-yl)pyridin-2-yl)methyl)-octahydro-1H-pyrazino[2,1-c][1,2,4]triazine-1-carboxamide]
7 | 44 nM | 28% | – | 3.75 ×10⁻⁶ cm/s | 184 µM (≈ 134 µg/mL) | C=CCN1CC(=O)N2[C@@H](Cc3ccc(O)cc3F)C(=O)N(Cc3ccc(F)c(N4CC(N5CCN(C)CC5)C4)n3)C[C@@H]2N1C(=O)NCc1ccccc1 [Example 10, (6S,9aS)-N-Benzyl-6-((2-fluoro-4-hydroxyphenyl)methyl)-8-((5-fluoro-6-(3-(4-methylpiperazin-1-yl)azetidin-1-yl)pyridin-2-yl)methyl)-4,7-dioxo-2-(prop-2-en-1-yl)-octahydro-1H-pyrazino[2,1-c][1,2,4]triazine-1-carboxamide]
8 | 330 nM | 51% | – | 0.65 ×10⁻⁶ cm/s | 195 µM (≈ 142 µg/mL) | C=CCN1CC(=O)N2[C@@H](Cc3ccc(O)cc3F)C(=O)N(Cc3cccc(N4CC(N5CC[C@@H](N(C)C)C5)C4)n3)C[C@@H]2N1C(=O)NCc1ccccc1 [Reference Example 2, (6S,9aS)-N-Benzyl-8-((6-(3-((3R)-3-(dimethylamino)pyrrolidin-1-yl)azetidin-1-yl)pyridin-2-yl)methyl)-6-((2-fluoro-4-hydroxyphenyl)methyl)-4,7-dioxo-2-(prop-2-en-1-yl)-octahydro-1H-pyrazino[2,1-c][1,2,4]triazine-1-carboxamide]
